Entries after “also recorded” stand apart in the source; their conditions may differ.
Tests used:
mouse TRPA1 [1] = target: T1, mouse TRPA1 (Mus musculus, UniProt Q8BLA8); assay: Whole-cell electrophysiology of TRPA1-expressing CHO cells (pressure, hyperosmolarity, cold); format: cell-based; conditions: data not shown
T1 construct: expressed in transfected cells; host or cells: CHO cells (tetracycline-induced for PatchXpress; mTRPA1-pcDNA5 named for the transient labelling experiment)
Description: We tested if TRPA1 is activated by mechanical forces. The electrophysiological behavior of thermoTRP-expressing Chinese Hamster Ovary (CHO) cells was investigated with two different assays of mechanical stress—pressure application using the recording pipette and changes in external osmolarity.
Mechanosensory neurons are often classified as high- or low-threshold, characterizing responses to pain and touch, respectively. We tested the mechanical threshold of TRPA1 by applying a wide range of negative pipette pressures (FIG. 1C). TRPA1-expressing CHO cells are activated at −90 mmHg or higher, consistent with native high-threshold mechanical receptors involved in sensing pain (Cho et al., J Neurosci 22:1238, 2002). […] Gadolinium (Gd^3+) is considered a blocker of native mechanically-gated ion channels in animal tissues (Martinac et al., Physiol Rev 81:685, 2001). […] FM1-43 is a styryl dye that specifically labels sensory cells by entering through open transduction channels. […] Furthermore, it was observed that 10 μM of FM1 -43 was able to block cinnamaldehyde-induced currents in TRPA1-expressing CHO cells (n=8).
To ensure that the mechanical response we observe is not an artifact of heterologous expression system, we tested if native TRPA1-expressing neurons also respond to such stimuli. 5/6 cinnamaldehyde-sensitive (presumptive TRPA1-expressing) DRG neurons responded to an application of −200 mmHg of suction, while 0/21 cinnamaldehyde insensitive neurons responded (16 of 21 were capsaicin-sensitive) (FIG. 2B). Millimolar camphor was recently reported to inhibit basal currents and cold or agonist-activation of TRPA1.
Mammalian cell electrophysiology: ThermoTRP-expressing CHO cells (rat TRPV1, rat TRPV2, mouse TRPV3, rat TRPV4, mouse TRPM8, and mouse TRPA1), control CHO cells, and cultured rat DRG neurons were prepared as described in Story et al., Cell 112:819, 2003; and Bandell et al., Neuron 41:849, 2004. Electrophysiological recordings were performed as described in Bandell et al., Neuron 41:849, 2004. Briefly, CHO cells were clamped at −60 mV and 0.8 second ramps from −80 mV to +80 mV were run every 4 seconds. Currents from DRG neurons were recorded at −60 mV and for their current-voltage curve, 300 ms voltage step at +20 mV was used 40 ms before 800 ms ramp from -80 mV to +80 mV to minimize contamination of voltage gated Na^+ or Ca^2+ current. The pipette solution for temperature and hyperosmotic experiments consisted of (in mM) 140 CsCl, 5 EGTA, 10 HEPES, 2 MgATP, 0.2 NaGTP, titrated to pH 7.4 with CsOH. The base external solution for these experiments consisted of (in mM) 140 NaCl, 5KCl, 10 HEPES, 2CaCl2, 1MgCl2, titrated to pH 7.4 with NaOH. Mannitol was used to adjust osmolarity for hypertonic solutions. For mouse TRPV3 and rat TRPV2, external calcium was replaced with 5 mM EGTA. Gluconate was substituted for chloride in (±)-pressure and hypotonic experiments to eliminate the potential for endogenous swelling-activated chloride currents. For these experiments, pipette solution (295 mOsm) consisted of (in mM) 125 Cs-gluconate, 15CsCl, 5 EGTA, 10 HEPES, 2 MgATP, 0.2NaGTP, titrated to pH 7.4 with CsOH. The external solution consisted of (in mM) 90 Na-gluconate, 10 NaCl, 5 K-gluconate, 10 HEPES, 2 CaCl2, 1 MgCl2, titrated to pH 7.4 with NaOH. Osmolarity was adjusted with mannitol to 220 mOsm (hypotonic) or 298 mOsm 15 (isotonic). (±)-Pressure was hydrostatically delivered by the recording pipette using syringe pumping (Hamill et al., Annu Rev Physiol 59:621, 1997) and monitored through Pressure Monitor (World Precision Instruments). Warner temperature controller (TC-324B and CL-100) was used for the heating or cooling the perfused bath solutions. […] The number of cells (n) tested with -100 mmHg to −300 mmHg, ˜+100 mmHg, 450 mOsm, and 220 mOsm for each cell type, respectively, are: CHO cells, n=7, 14, 5, 12; TRPV1, n=6, 5, 7, 5; TRPV2, n=4, 5, 3, 5; TRPV3, n=3, 2, 3, 0; TRPM8, n=12, 4, 10, 0. […]

mouse TRPA1 [2] = target: T1, mouse TRPA1; assay: FLIPR calcium-influx assay, block of cinnamaldehyde activation, CHO cells; format: cell-based; conditions: elicited by 50 μM cinnamaldehyde, CHO cells
Description: Calcium influx was measured using a standard FLIPR assay, data points are the average of 4 wells (˜8,000 cells/well) and error bars show standard error. […] Data was generated using the FLIPR calcium-influx assay, n=3 wells (˜8,000 cells/well) and normalized to the maximal response. Bars show standard error and solid curves are hill equation fits from which EC50 values are derived.
Using FLIPR calcium-influx assay, we screened 43,648 small molecules for their ability to block cinnamaldehyde-activation of human TRPA1 in a CHO cell line.
FLIPR Screen: CHO cells expressing human TRPA1 were plated into 384 well plates at a concentration of ˜8,000 cells/well. Cells were transferred to phosphate-buffered saline (PBS) and loaded with the calcium sensitive dye FLUO-4 using the FLIPR Calcium 3 Assay Kit (Molecular Devices, Sunnyvale, Calif.) 1 hour prior to the assay. Assays were run using the FLIPR2 (Molecular Devices, Sunnyvale, Calif.). All compounds were diluted into PBS from a high concentration DMSO-based stock solution and added during data collection with the FLIPR2 internal pipette head. Final DMSO concentrations never exceeded 0.5%.

TRPV1 = target: T2, TRPV1 (Rattus norvegicus, UniProt O35433); assay: ThermoTRP selectivity test; format: cell-based; conditions: at 50 μM (data not shown)
T2 construct: expressed in transfected cells; not restated for the selectivity test

TRPM8 = target: T3, TRPM8 (Mus musculus, UniProt Q8R4D5); assay: ThermoTRP selectivity test; format: cell-based; conditions: at 50 μM (data not shown)
T3 construct: expressed in transfected cells; not restated for the selectivity test

[3] = Behavioral response to the compound alone in hindpaw; format: in vivo; conditions: 1-10 mM in hindpaw of mice (data not shown)
[4] = tested on: CFA-induced mechanical hyperalgesia; assay: CFA-induced mechanical hyperalgesia (Von Frey threshold); format: in vivo; conditions: injected into hindpaw 24 hours after CFA, mice
Description: (§1) Red symbols represent responses from CFA-injected (A), or BK-injected (B) hindpaws while blue symbols represent responses from the other noninjected hindpaws of the same animals. Circles represent responses upon compound 18 treatment, whereas triangles represent responses upon vehicle treatments (A-C). Von Frey thresholds are measured and averaged. (***p<0.001, *p<0.05, two-tailed Student's T-test). […] Red symbols represent responses from CFA-injected hindpaws while blue symbols represent responses from the other non-injected hindpaws of the same animals. Number of flicks, licks, paw raises for 10 min at each time point are counted and averaged (n=8, *p<0.05, two-tailed Student's T-test).
(§2) Behavioral assays: Mice (C57B16 Mus musculus) of 8-10 weeks in age and 150-250 g Sprague Dawley rats were used for all behavioral assays. Animals were acclimated for 20-60 min to their testing environment prior to all experiments. Students' T test was used for all statistical calculations. All error bars represent standard error of the mean (SEM). Thermal plates, Hargreaves method (Plantar Analgesia meter) and Von Frey apparatus (Dynamic Plantar Aesthesiometer) were from UGO Basile and Columbus instruments. […] Briefly, mice were acclimated for 60 min to their testing environment prior to all experiments. Baseline responses were measured first and then 10 nM BK was injected to the skin of left hindpaws. Von Frey threshold or paw withdrawal latency was measured at 5, 15 and 30 min post injection. 1 mM of compound 18 was sometimes coinjected to left hindpaws to test its analgesic effect. For CFA-induced hyperalgesia test, 5 μg CFA in 10 uL was injected into mice (Caterina et al., Science 288:306, 2000; and Cao et al., Nature 392:390, 1998) and 50 μg in 100 uL (1:1 emulsion of mineral oil and saline; Obata et al., J Clin Invest 115:2393, 2005) was injected into rats and in 24 hrs measurements were performed. Before the measurement, the animals were re-acclimated to the environment for 20-60 min. […]

[5] = tested on: bradykinin (BK)-induced heat hyperalgesia; assay: Bradykinin-induced heat hyperalgesia; format: in vivo; conditions: mice
Description: as §1, §2

[6] = tested on: CFA-induced cold hyperalgesia; assay: CFA-induced cold hyperalgesia on a 5° C. plate; format: in vivo; conditions: rats
[7] = tested on: TRPV1, TRPV2, TRPV3, TRPV4, or TRPM8; assay: Effect on other thermoTRPs (summary statement); format: cell-based
Description: TRPA1 inhibitors that can be employed in the practice of the present invention include compounds that interferes with the expression, modification, regulation or activation of TRPA1, or compounds that down-regulates one or more of the normal biological activities of TRPA1 (e.g., its ion channel). […] Various TRPA1-specific antagonists can be used in the instant invention. Some of these TRPA1-specific inhibitors are identified by the present inventors, as described in the Examples below. These compounds can be obtained commercially or are otherwise described in the art. One such compound is Compound 18, (Z)-4-(4-chlorophynyl)-3-methylbut-3-en-2-oxime. This compound can be obtained commercially from Maybridge (Cornwall, UK). Another example is Compound 40, N,N′-Bis-(2-hydroxybenzyl)-2,5-diamino-2,5-dimethylhexane, which has been described in U.S. Pat. No. 4,129,556. […] Thus, these two compounds can be readily used to treat or alleviate mechanical hyperalgesia as described in more detail below.

TRPA1 = TRPA1 (Homo sapiens, UniProt O75762); assay: TRPA1 block, test not specified; conditions: summary statement
Sequence of TRPA1 (O75762 whole entry, species assumed): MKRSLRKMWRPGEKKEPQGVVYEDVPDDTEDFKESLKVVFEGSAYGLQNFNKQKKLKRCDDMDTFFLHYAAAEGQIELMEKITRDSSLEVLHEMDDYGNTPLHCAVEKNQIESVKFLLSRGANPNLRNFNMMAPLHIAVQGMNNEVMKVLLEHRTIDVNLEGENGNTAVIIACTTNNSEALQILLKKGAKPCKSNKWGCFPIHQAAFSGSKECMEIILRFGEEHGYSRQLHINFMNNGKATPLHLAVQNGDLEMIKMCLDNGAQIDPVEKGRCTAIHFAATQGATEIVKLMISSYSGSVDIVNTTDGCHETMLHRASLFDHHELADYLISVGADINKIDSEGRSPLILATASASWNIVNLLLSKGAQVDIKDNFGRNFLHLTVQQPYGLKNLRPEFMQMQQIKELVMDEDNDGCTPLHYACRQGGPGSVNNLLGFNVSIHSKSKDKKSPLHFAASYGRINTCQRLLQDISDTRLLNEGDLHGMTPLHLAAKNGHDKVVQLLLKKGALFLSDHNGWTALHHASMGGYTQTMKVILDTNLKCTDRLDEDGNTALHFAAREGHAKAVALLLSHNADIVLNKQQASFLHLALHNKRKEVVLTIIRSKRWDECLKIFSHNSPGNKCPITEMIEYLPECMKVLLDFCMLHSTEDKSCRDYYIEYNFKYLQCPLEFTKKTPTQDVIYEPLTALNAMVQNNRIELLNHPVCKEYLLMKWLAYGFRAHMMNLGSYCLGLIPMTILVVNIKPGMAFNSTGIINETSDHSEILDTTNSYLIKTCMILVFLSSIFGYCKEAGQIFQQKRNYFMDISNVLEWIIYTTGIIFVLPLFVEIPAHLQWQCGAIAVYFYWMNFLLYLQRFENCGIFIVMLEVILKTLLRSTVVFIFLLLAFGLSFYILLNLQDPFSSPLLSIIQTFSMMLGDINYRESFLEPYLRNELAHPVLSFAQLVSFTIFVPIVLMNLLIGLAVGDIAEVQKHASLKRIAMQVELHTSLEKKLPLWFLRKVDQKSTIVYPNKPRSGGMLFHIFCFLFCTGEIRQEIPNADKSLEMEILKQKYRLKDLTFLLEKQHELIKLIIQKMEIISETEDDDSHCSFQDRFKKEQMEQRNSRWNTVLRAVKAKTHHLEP

T1 sequence (Q8BLA8 whole entry): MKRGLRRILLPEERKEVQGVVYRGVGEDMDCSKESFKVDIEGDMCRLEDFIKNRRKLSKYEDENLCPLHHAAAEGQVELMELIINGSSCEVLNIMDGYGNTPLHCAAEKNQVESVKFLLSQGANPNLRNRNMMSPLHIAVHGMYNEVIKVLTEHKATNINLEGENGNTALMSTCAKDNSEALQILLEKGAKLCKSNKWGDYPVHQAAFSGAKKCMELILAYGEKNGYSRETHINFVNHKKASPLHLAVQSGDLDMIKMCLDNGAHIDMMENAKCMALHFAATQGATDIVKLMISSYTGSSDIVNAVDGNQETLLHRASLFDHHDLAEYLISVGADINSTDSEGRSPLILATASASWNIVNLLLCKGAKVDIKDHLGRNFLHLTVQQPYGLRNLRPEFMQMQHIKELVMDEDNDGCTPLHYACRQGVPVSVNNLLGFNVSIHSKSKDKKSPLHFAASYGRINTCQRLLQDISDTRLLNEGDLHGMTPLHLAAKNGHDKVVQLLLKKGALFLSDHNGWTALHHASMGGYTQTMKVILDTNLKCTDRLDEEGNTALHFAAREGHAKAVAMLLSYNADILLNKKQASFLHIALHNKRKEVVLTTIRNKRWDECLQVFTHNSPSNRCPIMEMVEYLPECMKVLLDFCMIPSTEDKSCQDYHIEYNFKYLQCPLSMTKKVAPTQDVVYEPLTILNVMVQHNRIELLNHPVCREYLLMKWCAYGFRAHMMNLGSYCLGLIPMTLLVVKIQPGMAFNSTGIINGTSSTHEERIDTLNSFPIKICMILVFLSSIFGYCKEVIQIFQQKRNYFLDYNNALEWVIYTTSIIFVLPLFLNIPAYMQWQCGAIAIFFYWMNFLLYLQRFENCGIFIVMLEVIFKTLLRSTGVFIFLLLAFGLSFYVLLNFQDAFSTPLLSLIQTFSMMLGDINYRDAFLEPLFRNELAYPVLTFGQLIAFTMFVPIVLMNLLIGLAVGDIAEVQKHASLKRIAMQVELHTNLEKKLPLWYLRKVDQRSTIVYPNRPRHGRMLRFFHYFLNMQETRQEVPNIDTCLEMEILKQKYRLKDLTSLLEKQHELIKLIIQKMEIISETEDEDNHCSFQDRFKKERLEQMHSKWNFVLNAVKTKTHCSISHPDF
T2 sequence (O35433 whole entry): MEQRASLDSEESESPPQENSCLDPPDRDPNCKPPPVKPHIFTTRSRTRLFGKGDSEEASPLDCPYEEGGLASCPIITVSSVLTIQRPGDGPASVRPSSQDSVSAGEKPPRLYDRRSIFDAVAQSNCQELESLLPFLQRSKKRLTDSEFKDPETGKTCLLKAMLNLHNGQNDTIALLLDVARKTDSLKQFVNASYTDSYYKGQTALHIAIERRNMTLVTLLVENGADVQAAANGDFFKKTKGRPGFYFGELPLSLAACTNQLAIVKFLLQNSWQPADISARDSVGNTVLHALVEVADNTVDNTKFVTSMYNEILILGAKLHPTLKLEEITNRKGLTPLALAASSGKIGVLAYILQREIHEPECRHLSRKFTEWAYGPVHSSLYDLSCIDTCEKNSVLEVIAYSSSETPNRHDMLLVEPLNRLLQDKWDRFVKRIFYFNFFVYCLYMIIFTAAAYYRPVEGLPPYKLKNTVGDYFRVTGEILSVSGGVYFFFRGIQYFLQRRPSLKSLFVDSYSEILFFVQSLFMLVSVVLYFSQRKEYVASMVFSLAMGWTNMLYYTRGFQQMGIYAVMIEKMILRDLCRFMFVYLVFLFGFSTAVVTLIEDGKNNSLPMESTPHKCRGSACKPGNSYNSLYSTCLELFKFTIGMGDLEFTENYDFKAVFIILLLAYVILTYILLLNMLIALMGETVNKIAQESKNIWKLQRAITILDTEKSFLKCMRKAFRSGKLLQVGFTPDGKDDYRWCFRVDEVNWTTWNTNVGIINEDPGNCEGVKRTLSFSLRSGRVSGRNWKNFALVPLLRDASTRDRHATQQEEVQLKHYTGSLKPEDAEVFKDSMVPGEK
T3 sequence (Q8R4D5 whole entry): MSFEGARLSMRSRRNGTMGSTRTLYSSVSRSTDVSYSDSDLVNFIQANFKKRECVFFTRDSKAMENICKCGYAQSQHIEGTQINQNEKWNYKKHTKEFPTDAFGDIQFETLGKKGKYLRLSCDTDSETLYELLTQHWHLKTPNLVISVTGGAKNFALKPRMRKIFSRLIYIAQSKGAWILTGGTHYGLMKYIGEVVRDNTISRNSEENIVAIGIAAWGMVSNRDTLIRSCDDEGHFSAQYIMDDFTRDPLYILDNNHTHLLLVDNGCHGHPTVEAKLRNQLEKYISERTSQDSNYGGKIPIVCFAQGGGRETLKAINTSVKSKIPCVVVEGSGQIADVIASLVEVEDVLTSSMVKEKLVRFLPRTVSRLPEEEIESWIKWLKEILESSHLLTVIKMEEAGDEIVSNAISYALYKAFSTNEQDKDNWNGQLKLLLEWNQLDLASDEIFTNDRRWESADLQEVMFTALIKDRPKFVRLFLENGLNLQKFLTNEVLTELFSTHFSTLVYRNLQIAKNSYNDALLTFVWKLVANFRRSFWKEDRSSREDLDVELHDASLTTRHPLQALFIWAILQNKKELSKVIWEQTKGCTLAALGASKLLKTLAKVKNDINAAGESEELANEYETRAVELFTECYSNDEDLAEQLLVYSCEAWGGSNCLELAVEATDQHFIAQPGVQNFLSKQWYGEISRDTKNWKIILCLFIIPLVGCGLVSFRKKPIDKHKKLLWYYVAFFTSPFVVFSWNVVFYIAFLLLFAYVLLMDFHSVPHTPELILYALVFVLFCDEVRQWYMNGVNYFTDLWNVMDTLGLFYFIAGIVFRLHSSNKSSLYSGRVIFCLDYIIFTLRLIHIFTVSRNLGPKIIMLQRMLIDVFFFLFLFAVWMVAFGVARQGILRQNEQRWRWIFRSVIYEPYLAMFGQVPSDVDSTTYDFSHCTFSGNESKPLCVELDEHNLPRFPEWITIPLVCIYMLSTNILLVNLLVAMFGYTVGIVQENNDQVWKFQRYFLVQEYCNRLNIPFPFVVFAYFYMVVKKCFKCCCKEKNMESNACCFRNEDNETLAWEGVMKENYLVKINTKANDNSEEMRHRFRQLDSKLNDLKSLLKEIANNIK

With `CC(=Cc1ccc(Cl)cc1)C(C)=NO` [Compound 18, (Z)-4-(4-chlorophynyl)-3-methylbut-3-en-2-oxime] the “block of TRPA1 responses in CHO cells induced by cold” value (mouse TRPA1 [1]) was “blocked”, the “block of TRPA1 responses in CHO cells induced by pressure” value (mouse TRPA1 [1]) was “blocked” and the IC50 (mouse TRPA1 [2]) was 4.5 µM. For the same compound, the “block of TRPV1” value (TRPV1) was “did not block”, the “block of TRPM8” value (TRPM8) was “did not block” and the “behavioral response to the compound alone” value [3] was “did not cause any behavioral response”. The CFA-induced mechanical hyperalgesia [4] was “reverses; also recorded: relieved”, the BK-induced heat hyperalgesia [5] was “not thermal (heat) behaviours; also recorded: did not block” and the “CFA-induced cold hyperalgesia (flicks, licks, paw raises for 10 min)” value [6] was “reverses cold behaviours; also recorded: robust block”. The “effect on activation or activities of the other thermoTRPs” value [7] was “little or no effect” and the “inhibition of TRPA1 activation or function” value (TRPA1) was “specifically inhibit TRPA1 activation or function”.
